This is an account of results in ChEMBL document CHEMBL1909046, “DrugMatrix in vitro pharmacology data”.

Chain of D(3) dopamine receptor (P35462 whole entry): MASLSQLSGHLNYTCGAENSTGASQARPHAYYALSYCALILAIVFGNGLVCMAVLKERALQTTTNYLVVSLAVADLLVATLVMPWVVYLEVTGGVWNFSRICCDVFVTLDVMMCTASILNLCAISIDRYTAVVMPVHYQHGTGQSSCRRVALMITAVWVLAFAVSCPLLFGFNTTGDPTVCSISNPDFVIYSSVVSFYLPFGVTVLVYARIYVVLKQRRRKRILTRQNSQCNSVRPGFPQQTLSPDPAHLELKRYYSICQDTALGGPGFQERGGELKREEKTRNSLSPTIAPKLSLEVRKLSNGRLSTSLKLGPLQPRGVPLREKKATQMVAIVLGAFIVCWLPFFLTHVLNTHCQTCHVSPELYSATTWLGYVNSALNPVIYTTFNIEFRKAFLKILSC
Chain of Melanocortin receptor 3 (P41968 whole entry): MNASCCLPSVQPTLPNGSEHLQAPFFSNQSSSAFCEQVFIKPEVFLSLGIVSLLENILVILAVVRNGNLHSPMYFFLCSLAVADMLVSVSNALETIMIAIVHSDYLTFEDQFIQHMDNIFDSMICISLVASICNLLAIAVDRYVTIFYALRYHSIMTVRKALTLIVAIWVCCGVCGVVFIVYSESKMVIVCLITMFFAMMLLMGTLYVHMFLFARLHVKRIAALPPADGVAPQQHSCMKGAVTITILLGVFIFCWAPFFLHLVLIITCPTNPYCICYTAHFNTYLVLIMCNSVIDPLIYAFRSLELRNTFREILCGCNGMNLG

For one test, the target named is T1, Alpha-1D adrenergic receptor (Homo sapiens, UniProt P25100). Further: in other assays of this panel Not Active means under 50% inhibition at 10 µM.
T1 sequence (P25100 whole entry): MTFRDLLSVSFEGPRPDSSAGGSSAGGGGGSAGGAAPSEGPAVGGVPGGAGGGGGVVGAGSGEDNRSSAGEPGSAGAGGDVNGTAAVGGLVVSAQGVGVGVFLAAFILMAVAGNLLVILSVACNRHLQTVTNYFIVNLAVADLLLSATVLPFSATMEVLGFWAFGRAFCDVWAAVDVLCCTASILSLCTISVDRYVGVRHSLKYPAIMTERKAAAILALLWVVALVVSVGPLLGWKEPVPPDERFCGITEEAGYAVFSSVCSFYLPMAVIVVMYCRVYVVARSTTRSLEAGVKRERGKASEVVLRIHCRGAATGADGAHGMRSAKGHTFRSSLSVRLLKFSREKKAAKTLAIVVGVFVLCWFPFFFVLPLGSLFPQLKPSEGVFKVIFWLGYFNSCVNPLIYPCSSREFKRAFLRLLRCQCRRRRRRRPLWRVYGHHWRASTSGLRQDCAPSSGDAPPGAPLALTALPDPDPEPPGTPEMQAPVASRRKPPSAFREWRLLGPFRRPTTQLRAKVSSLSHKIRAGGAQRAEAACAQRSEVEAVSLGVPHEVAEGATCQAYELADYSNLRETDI
Test: not given
Type of test: cell membranes, HEK293, Membrane. The settings on record: hek293.
As to `C[C@]12CCC(=O)C=C1CC[C@@H]1[C@@H]2C(=O)C[C@@]2(C)[C@H]1CC[C@]2(O)C(=O)CO` [CORTISONE], the IC50 result is “Not Active”.

`CC(=O)O[C@]1(C(C)=O)CC[C@H]2[C@@H]3C=C(Cl)C4=CC(=O)CC[C@]4(C)[C@H]3CC[C@@]21C` [CHLORMADINONE ACETATE]: the IC50 result is “Not Active”.

Tested on in the next test: not listed separately
As to the kind of experiment: DRUGMATRIX: Calcium Channel Type L, Phenylalkylamine radioligand binding (ligand: [3H] (-)-Desmethoxyverapamil (D-888)). Format: cell membranes, Rattus norvegicus, Wistar, Brain, Membrane. The settings on record: Not Active = under 50% inhibition at 10 µM.
In the case of `C[C@]12CCC(=O)C=C1CC[C@@H]1[C@@H]2C(=O)C[C@@]2(C)[C@H]1CC[C@]2(O)C(=O)CO` [CORTISONE], the IC50 entry is on record as “Not Active” and the Ki entry is “Not Active”.

On to `CC(=O)O[C@]1(C(C)=O)CC[C@H]2[C@@H]3C=C(Cl)C4=CC(=O)CC[C@]4(C)[C@H]3CC[C@@]21C` [CHLORMADINONE ACETATE], for which the IC50 result is “Not Active” and the Ki entry is reported as “Not Active”.

The target of the next test is Prostaglandin G/H synthase 1 (Homo sapiens, UniProt P23219). As to the kind of experiment: biochemical. Format: tissue-based, Platelet. The settings on record: platelet.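 Further: inhibition of COX-1 enzyme activity, with arachidonic acid supplied as substrate; in other assays of this panel Not Active means under 50% inhibition at 10 µM.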
Chain of Prostaglandin G/H synthase 1 (P23219 whole entry): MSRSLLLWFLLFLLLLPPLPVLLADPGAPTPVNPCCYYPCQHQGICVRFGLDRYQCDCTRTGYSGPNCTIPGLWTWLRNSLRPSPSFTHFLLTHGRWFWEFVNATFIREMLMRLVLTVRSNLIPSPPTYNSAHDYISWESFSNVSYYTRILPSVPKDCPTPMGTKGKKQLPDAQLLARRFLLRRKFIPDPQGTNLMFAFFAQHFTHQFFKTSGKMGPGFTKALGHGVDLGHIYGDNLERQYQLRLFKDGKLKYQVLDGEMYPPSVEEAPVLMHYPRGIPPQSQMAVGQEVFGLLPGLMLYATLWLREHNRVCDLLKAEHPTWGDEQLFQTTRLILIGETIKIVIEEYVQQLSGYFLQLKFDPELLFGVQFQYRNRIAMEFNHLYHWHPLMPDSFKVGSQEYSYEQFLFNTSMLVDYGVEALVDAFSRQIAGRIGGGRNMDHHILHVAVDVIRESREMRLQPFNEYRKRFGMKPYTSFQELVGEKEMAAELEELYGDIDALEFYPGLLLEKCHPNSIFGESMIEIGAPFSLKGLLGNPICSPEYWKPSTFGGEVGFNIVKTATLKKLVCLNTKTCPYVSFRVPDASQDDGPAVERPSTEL
Consider `C[C@]12CCC(=O)C=C1CC[C@@H]1[C@@H]2C(=O)C[C@@]2(C)[C@H]1CC[C@]2(O)C(=O)CO` [CORTISONE], for which the IC50 result is on record as “Not Active”.

For `CC(=O)O[C@]1(C(C)=O)CC[C@H]2[C@@H]3C=C(Cl)C4=CC(=O)CC[C@]4(C)[C@H]3CC[C@@]21C` [CHLORMADINONE ACETATE], the IC50 entry is listed as “Not Active”.

Another test concerns the target D(3) dopamine receptor (Homo sapiens, UniProt P35462). As to the kind of experiment: DRUGMATRIX: Dopamine D3 radioligand binding (ligand: [3H] Spiperone). The settings on record: cho. Type of test: cell membranes, CHO, Membrane.
For `C[C@]12CCC(=O)C=C1CC[C@@H]1[C@@H]2C(=O)C[C@@]2(C)[C@H]1CC[C@]2(O)C(=O)CO` [CORTISONE], the IC50 result is recorded as “Not Active”.

In the case of `CC(=O)O[C@]1(C(C)=O)CC[C@H]2[C@@H]3C=C(Cl)C4=CC(=O)CC[C@]4(C)[C@H]3CC[C@@]21C` [CHLORMADINONE ACETATE], the IC50 result is “Not Active”.

Tested on in the next test: not listed separately
The experiment in a line: DRUGMATRIX: Glutamate, NMDA, Agonism radioligand binding (ligand: [3H] CGP-39653). Format: cell membranes, Rattus norvegicus, Wistar, Cerebral cortex, Membrane. The settings on record: Not Active = under 50% inhibition at 10 µM.
On to `C[C@]12CCC(=O)C=C1CC[C@@H]1[C@@H]2C(=O)C[C@@]2(C)[C@H]1CC[C@]2(O)C(=O)CO` [CORTISONE], for which the IC50 result is “Not Active” and the Ki entry was “Not Active”.

For `CC(=O)O[C@]1(C(C)=O)CC[C@H]2[C@@H]3C=C(Cl)C4=CC(=O)CC[C@]4(C)[C@H]3CC[C@@]21C` [CHLORMADINONE ACETATE], the IC50 entry is on record as “Not Active” and the Ki entry is listed as “Not Active”.

Tested on in the next test: not listed separately
As to the kind of experiment: DRUGMATRIX: Glutamate, NMDA, Phencyclidine radioligand binding (ligand: [3H] TCP). The settings on record: Not Active = under 50% inhibition at 10 µM. Type of test: cell membranes, Rattus norvegicus, Wistar, Cerebral cortex, Membrane.
For `C[C@]12CCC(=O)C=C1CC[C@@H]1[C@@H]2C(=O)C[C@@]2(C)[C@H]1CC[C@]2(O)C(=O)CO` [CORTISONE], the IC50 result is “Not Active” and the Ki entry is given as “Not Active”.

Consider `CC(=O)O[C@]1(C(C)=O)CC[C@H]2[C@@H]3C=C(Cl)C4=CC(=O)CC[C@]4(C)[C@H]3CC[C@@]21C` [CHLORMADINONE ACETATE], for which the IC50 entry is given as “Not Active” and the Ki result is listed as “Not Active”.

The target of the next test is T2, 3-hydroxy-3-methylglutaryl-coenzyme A reductase (Homo sapiens, UniProt P04035).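 Further: enzyme inhibition assay of HMG-CoA reductase using radiolabeled [14C]HMG-CoA as substrate; in other assays of this panel Not Active means under 50% inhibition at 10 µM.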
T2 sequence (P04035 whole entry): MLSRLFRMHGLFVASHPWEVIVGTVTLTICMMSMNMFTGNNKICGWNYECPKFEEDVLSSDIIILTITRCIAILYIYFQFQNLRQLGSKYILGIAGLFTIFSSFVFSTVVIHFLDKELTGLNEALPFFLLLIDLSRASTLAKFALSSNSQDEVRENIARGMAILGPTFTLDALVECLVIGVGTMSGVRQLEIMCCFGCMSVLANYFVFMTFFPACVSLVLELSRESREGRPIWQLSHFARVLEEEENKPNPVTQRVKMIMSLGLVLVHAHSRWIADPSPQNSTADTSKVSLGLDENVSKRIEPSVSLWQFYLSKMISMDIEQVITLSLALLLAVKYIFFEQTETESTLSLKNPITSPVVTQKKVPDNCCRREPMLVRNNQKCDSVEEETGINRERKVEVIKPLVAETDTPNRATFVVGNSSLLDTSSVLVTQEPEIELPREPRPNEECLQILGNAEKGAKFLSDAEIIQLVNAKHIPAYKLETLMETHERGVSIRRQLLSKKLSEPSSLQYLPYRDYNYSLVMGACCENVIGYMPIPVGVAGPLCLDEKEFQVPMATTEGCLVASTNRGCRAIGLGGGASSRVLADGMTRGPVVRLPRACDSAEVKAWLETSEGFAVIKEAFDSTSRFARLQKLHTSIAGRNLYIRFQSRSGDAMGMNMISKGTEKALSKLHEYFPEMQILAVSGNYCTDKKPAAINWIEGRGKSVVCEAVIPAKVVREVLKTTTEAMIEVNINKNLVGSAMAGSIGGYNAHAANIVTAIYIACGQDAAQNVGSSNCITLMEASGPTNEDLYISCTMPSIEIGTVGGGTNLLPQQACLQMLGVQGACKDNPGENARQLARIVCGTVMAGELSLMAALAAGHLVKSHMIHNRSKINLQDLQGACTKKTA
Test: not given
On the set-up: species or system Escherichia coli.
Conditions: not given
Consider `C[C@]12CCC(=O)C=C1CC[C@@H]1[C@@H]2C(=O)C[C@@]2(C)[C@H]1CC[C@]2(O)C(=O)CO` [CORTISONE], for which the IC50 entry was “Not Active”.

On to `CC(=O)O[C@]1(C(C)=O)CC[C@H]2[C@@H]3C=C(Cl)C4=CC(=O)CC[C@]4(C)[C@H]3CC[C@@]21C` [CHLORMADINONE ACETATE], for which the IC50 entry is reported as “Not Active”.

A further test addresses Melanocortin receptor 3 (Homo sapiens, UniProt P41968).
Test: not given
Type of test: cell membranes, Membrane. The settings on record: hek293.
As for `C[C@]12CCC(=O)C=C1CC[C@@H]1[C@@H]2C(=O)C[C@@]2(C)[C@H]1CC[C@]2(O)C(=O)CO` [CORTISONE], the IC50 result is on record as “Not Active”.

On to `CC(=O)O[C@]1(C(C)=O)CC[C@H]2[C@@H]3C=C(Cl)C4=CC(=O)CC[C@]4(C)[C@H]3CC[C@@]21C` [CHLORMADINONE ACETATE], for which the IC50 result is on record as “Not Active”.

Tested on in the next test: not listed separately
As to the kind of experiment: DRUGMATRIX: Phosphodiesterase PDE4 enzyme inhibition (substrate: [3H]cAMP + cAMP). The note with it: u-937; Not Active = under 50% inhibition at 10 µM.
Regarding `C[C@]12CCC(=O)C=C1CC[C@@H]1[C@@H]2C(=O)C[C@@]2(C)[C@H]1CC[C@]2(O)C(=O)CO` [CORTISONE], the IC50 entry is recorded as “Not Active” and the Ki result is recorded as “Not Active”.

With `CC(=O)O[C@]1(C(C)=O)CC[C@H]2[C@@H]3C=C(Cl)C4=CC(=O)CC[C@]4(C)[C@H]3CC[C@@]21C` [CHLORMADINONE ACETATE], the IC50 result is “Not Active” and the Ki entry is recorded as “Not Active”.

In another test the target is Platelet-activating factor receptor (Homo sapiens, UniProt P25105). The experiment in a line: biochemical. The settings on record: platelet. Type of test: tissue-based. Further: in other assays of this panel Not Active means under 50% inhibition at 10 µM.
Chain of Platelet-activating factor receptor (P25105 whole entry): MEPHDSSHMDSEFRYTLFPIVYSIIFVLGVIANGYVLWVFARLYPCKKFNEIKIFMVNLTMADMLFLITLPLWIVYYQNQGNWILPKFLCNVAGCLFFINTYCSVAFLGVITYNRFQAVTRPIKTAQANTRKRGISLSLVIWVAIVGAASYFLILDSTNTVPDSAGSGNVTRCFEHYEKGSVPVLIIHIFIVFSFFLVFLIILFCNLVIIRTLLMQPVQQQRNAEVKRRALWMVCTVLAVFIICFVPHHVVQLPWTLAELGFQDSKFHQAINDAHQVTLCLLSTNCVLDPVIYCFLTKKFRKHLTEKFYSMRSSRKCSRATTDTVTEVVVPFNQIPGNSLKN
Consider `C[C@]12CCC(=O)C=C1CC[C@@H]1[C@@H]2C(=O)C[C@@]2(C)[C@H]1CC[C@]2(O)C(=O)CO` [CORTISONE], for which the IC50 result is given as “Not Active”.

As to `CC(=O)O[C@]1(C(C)=O)CC[C@H]2[C@@H]3C=C(Cl)C4=CC(=O)CC[C@]4(C)[C@H]3CC[C@@]21C` [CHLORMADINONE ACETATE], the IC50 entry is on record as “Not Active”.

Another test has as its target T3, Interstitial collagenase (Homo sapiens, UniProt P03956).
T3 sequence (P03956 whole entry): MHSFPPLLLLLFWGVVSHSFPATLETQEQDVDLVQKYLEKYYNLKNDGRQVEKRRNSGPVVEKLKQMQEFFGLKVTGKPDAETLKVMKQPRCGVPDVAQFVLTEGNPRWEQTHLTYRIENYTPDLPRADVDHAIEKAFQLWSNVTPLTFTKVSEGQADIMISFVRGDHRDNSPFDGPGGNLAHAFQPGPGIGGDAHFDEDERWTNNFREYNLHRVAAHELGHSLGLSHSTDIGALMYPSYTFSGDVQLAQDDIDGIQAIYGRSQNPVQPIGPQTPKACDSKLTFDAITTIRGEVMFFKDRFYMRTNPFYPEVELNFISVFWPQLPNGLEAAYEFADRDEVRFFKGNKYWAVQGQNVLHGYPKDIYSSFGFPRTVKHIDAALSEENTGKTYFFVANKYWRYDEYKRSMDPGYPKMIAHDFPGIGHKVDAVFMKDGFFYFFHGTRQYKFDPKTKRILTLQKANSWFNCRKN
Test: not given
Conditions: not given
Type of test: tissue-based, Rheumatoid synovial fibroblasts.
For `C[C@]12CCC(=O)C=C1CC[C@@H]1[C@@H]2C(=O)C[C@@]2(C)[C@H]1CC[C@]2(O)C(=O)CO` [CORTISONE], the IC50 entry is “Not Active”.

On to `CC(=O)O[C@]1(C(C)=O)CC[C@H]2[C@@H]3C=C(Cl)C4=CC(=O)CC[C@]4(C)[C@H]3CC[C@@]21C` [CHLORMADINONE ACETATE], for which the IC50 result is recorded as “Not Active”.

For a further test, the target named is Mitogen-activated protein kinase 1 (Homo sapiens, UniProt P28482). As to the kind of experiment: DRUGMATRIX: Protein Serine/Threonine Kinase, ERK2 enzyme inhibition (substrate: Myelin Basic Protein). The note with it: Not Active = under 50% inhibition at 10 µM. On the set-up: species or system Escherichia coli.
Chain of Mitogen-activated protein kinase 1 (P28482 whole entry): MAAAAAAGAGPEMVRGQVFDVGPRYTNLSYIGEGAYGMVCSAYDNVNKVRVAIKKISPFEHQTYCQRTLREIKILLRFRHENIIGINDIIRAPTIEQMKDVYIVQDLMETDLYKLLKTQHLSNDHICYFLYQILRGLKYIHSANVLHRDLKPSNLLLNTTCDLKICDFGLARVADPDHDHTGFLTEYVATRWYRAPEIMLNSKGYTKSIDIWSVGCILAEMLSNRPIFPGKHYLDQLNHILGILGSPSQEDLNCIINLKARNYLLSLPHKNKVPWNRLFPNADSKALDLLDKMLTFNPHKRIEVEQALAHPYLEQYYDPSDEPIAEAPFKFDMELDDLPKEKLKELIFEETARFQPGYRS
`C[C@]12CCC(=O)C=C1CC[C@@H]1[C@@H]2C(=O)C[C@@]2(C)[C@H]1CC[C@]2(O)C(=O)CO` [CORTISONE]: the IC50 result is recorded as “Not Active”.

Take `CC(=O)O[C@]1(C(C)=O)CC[C@H]2[C@@H]3C=C(Cl)C4=CC(=O)CC[C@]4(C)[C@H]3CC[C@@]21C` [CHLORMADINONE ACETATE]: the IC50 result is listed as “Not Active”.

The next test deals with T4, Adenosine receptor A1 (Homo sapiens, UniProt P30542).
T4 sequence (P30542 whole entry): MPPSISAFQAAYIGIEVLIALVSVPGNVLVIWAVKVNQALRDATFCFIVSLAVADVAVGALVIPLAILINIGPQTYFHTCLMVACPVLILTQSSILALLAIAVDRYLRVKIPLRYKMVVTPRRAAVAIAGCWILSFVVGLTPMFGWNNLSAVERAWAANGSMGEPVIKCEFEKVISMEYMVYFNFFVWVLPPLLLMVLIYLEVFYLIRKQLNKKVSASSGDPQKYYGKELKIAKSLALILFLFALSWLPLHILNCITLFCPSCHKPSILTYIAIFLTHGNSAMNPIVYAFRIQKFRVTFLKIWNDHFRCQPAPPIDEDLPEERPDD
Test: not given
Format: cell membranes, CHO, Membrane. The note with it: cho.
As for `C[C@]12CCC(=O)C=C1CC[C@@H]1[C@@H]2C(=O)C[C@@]2(C)[C@H]1CC[C@]2(O)C(=O)CO` [CORTISONE], the IC50 result is “Not Active”.

Take `CC(=O)O[C@]1(C(C)=O)CC[C@H]2[C@@H]3C=C(Cl)C4=CC(=O)CC[C@]4(C)[C@H]3CC[C@@]21C` [CHLORMADINONE ACETATE]: the IC50 entry is listed as “Not Active”.
